Data on 6 compounds can be found in patent EP2000140A1, “Use of derivatives of 3-oxo-2,3-dihydro-5H-thiazolo[3,2-a]pyrimidine or of 3-oxo-2,3-dihydro-5H-imidazolo[3,2-a]pyrimidine for the preparation of pharmaceutical compositions intended for the treatment of cancer” (INSTITUT NATIONAL DE LA SANTE ET DE LA RECHERCHE MEDICALE …, priority 2007, dated 2008).

SMILES strings stand for the structures. Structures can show the parent of a compound that is named as a salt. Where two headings read alike, the source gives them in different places.

A word on the IC50: it is the point on the concentration scale where inhibition reaches its midpoint.

Assay [1] deals with T1, MBP-CDC25B3 recombinant enzyme (Homo sapiens, UniProt P30305).
T1 construct: made in house
T1 sequence (P30305 1-580): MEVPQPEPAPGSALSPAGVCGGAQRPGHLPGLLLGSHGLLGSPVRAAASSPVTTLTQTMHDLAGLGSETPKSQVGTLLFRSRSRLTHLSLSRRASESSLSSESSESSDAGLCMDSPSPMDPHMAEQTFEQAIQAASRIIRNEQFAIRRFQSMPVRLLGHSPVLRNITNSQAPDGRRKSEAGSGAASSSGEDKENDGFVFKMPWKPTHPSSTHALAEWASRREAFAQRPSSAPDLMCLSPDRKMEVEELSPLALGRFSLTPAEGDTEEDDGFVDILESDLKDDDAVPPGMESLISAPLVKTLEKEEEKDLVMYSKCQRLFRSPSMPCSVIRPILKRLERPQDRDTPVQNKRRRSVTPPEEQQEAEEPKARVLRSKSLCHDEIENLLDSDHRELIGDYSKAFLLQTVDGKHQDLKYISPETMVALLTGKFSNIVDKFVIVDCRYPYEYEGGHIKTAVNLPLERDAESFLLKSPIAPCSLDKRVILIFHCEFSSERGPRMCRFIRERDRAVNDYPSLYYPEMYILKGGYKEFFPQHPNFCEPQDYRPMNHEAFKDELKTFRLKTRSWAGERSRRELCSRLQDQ
Briefly: In vitro enzymatic assay (fluorescein diphosphate as substrate). Format: biochemical. The conditions noted are these: recombinant fused MBP-CDC25B protein, fluorescein diphosphate 30 µM as substrate, concentration response up to 100 µM. The protocol:
The activity of the MBP-CDC25B3 recombinant enzyme was monitored using fluorescein diphosphate as the substrate. The assay was performed in 96-well plates in a final volume of 200 µL. The maltose binding protein-CDC25B3 was kept in elution buffer [50mM phosphate pH 7.5, 300 mM NaCl, 500 mM imidazole, 10% glycerol]. It was diluted in assay buffer [30 mM Tris-HCl (pH 8.2), 75 mM NaCl, 0.67 mM EDTA, 0.033% BSA, 1 mM DTT]. The final concentration of CDC25B3 was 75 ng/well. Products were studied in a concentration response up to 100 µM. The reaction was initiated by addition of 30 µM of fluorescein diphosphate followed by immediate measure of fluorescein emission with a Fluoroskan Ascent (Lab Systems; excitation filter: 485 nm, emission filter: 530 nm). The results are expressed as the means of at least two independent experiments with three determinations per tested concentration and per experiment. For each compound, the drug concentration required for 50% inhibition (IC50) was determined from a sigmoidal dose-response curve using GraphPad Prism (GraphPad Software, San Diego, CA).
The compounds of formula (I) were evaluated for in vitro enzymatic activity inhibition on the recombinant fused MBP-CDC25B protein with fluorescein diphosphate as the substrate.

A further assay deals with HeLa cells. Briefly: Clonogenic assay (cloning inhibition, colony counting after crystal violet staining). Format: cell-based. Particulars: 10 days incubation. The protocol: For cloning inhibition assays, HeLa cells were plated at 100 cells/well in 6-well tissue culture plates with 2.5 mL of medium/well. After 24 h growing at 37 °C in a humidified atmosphere of 5% CO2, the culture medium was replaced by control medium or medium containing inhibitors at increasing concentrations (up to 100 µM) and incubated for 10 days. Cells were then washed with […] phosphate-buffered saline and fixed in 10% formaldehyde for 30 minutes at room temperature. They were carefully rinsed with water, stained with 1 mL crystal violet (2 g in 100 mL ethanol, then 2 mL in 100 mL water) for 10 minutes and finally rinsed with water. The plating efficiency was determined by counting the colonies. The results are expressed as the means of two independent experiments with three determinations per tested concentration. For each compound, the IC50 was determined from a sigmoidal dose-response using GraphPad Prism (GraphPad Software, San Diego, CA).
The effects on cell proliferation were further investigated in a clonogenic assay on HeLa cells. HeLa cells were treated at day 1 with increasing concentration of drugs and then plated for an additional 10-day. After crystal violet staining and colony counting, dose-response curve were drawn and the IC50 values determined.

[2] abbreviates: Homo sapiens, 240 h, read-out: IC50.

Turning to `CCOC(=O)C1=C(C)N=c2sc(=Cc3ccc(O)cc3)c(=O)n2C1c1ccc2c(c1)OCO2` (centres unmarked) [(1a), ethyl 5-(benzo[1,3]dioxol-5-yl)-2-(4-hydroxybenzylidene)-7-methyl-3-oxo-2,3-dihydro-5H-thiazolo[3,2-a]pyrimidinium-6-carboxylate mesylate], the half-maximal inhibitory concentration (IC50) came to 6 µM in assay [1] and 14.8 µM with HeLa cells (mesylate).

Turning to `COC(=O)C1=C(C)N=c2sc(=Cc3ccc(O)cc3)c(=O)n2C1c1ccc2c(c1)OCO2` (centres unmarked) [(12a), methyl 5-(benzo[1,3]dioxol-5-yl)-2-(4-hydroxybenzylidene)-7-methyl-3-oxo-2,3-dihydro-5H-thiazolo[3,2-a]pyrimidine-6-carboxylate], the IC50 in assay [1] was determined as 9.2 µM.

As to `CCOC(=O)C1=C(C)N=c2sc(=Cc3ccc(O)cc3)c(=O)n2C1c1ccc2c(c1)OCO2` (stereo not drawn) [Compound 1, ethyl 5-(benzo[1,3]dioxol-5-yl)-2-(4-hydroxybenzylidene)-7-methyl-3-oxo-2,3-dihydro-5H-thiazolo[3,2-α]pyrimidine-6-carboxylate], the IC50 in assay [1] came out at 13 µM; with HeLa cells (Homo sapiens, HeLa, 240 h), 15.9 µM.

`CCOC(=O)C1=C(C)N=c2sc(=Cc3cc(Br)c(O)c(Br)c3)c(=O)n2C1c1ccc2c(c1)OCO2` (centres unmarked) [Compound 12, ethyl 5-(benzo[1,3]dioxol-5-yl)-2-(3,5-dibromo-4-hydroxybenzylidene)-7-methyl-3-oxo-2,3-dihydro-5H-thiazolo[3,2-a]pyrimidine-6-carboxylate]: the IC50 in assay [1] was found to be 16.7 µM; with HeLa cells (setting [2]), 9.75 µM.

Take `CCOC(=O)C1=C(C)N=c2sc(=Cc3ccc(OC(C)=O)c(OC(C)=O)c3)c(=O)n2C1c1ccc2c(c1)OCO2` (centres unmarked) [Compound (5a), ethyl 2-(3,4-diacetoxybenzylidene)-5-(benzo[1,3]dioxol-5-yl)-7-methyl-3-oxo-2,3-dihydro-5H-thiazolo[3,2-a]pyrimidine-6-carboxylate]: the IC50 in assay [1] turned out to be 1.2 µM; in the assay with HeLa cells (setting [2]), 1.8 µM.

For `CCOC(=O)C1=C(C)N=c2sc(=Cc3ccc(OC(C)=O)c(OC(C)=O)c3)c(=O)n2C1c1ccc(OC)c(OC)c1` (centres unmarked) [Compound (5b), ethyl 2-(3,4-diacetoxybenzylidene)-5-(3,4-dimethoxyphenyl)-7-methyl-3-oxo-2,3-dihydro-5H-thiazolo[3,2-a]pyrimidine-6-carboxylate], the IC50 in assay [1] was found to be 2.9 µM; in the assay on HeLa cells (setting [2]) it was 3.5 µM.
